From patent publication US20070128217A1 (priority 2003, published 2007)

Columns and labels:
[1] = tested on: antibodies in sera from SARS patients (sera 1a, 1b, 2, 6, 37, 62, London, SARS-yellow, SARS-green); format: binding, human; set-up: Binding of serum 6 to linear peptides of protein X1 of SARS-CoV Urbani / Binding of serum 37 to linear peptides of protein X1 of SARS-CoV Urbani / Binding of serum 6 to looped/cyclic peptide (PEPSCAN-ELISA) / Binding of serum 37 to looped/cyclic peptide (PEPSCAN-ELISA) / Binding of serum 37 to looped/cyclic peptides of protein X1 of SARS-CoV Urbani / Binding of serum 6 to linear peptides of protein X2 / Binding of serum 37 to linear peptides of protein X2 / Binding of serum 37 to looped/cyclic peptides of protein X2 of SARS-CoV Urbani / Binding of serum 6 to linear peptides of protein M of SARS-CoV Urbani / Binding of serum 37 to linear peptides of protein M of SARS-CoV Urbani / Binding of serum 6 to looped/cyclic peptides of protein M of SARS-CoV Urbani / Binding of serum 37 to looped/cyclic peptides of protein M of SARS-CoV Urbani / Binding of serum 6 to linear peptides of protein X3 of SARS-CoV Urbani / Binding of serum 37 to linear peptides of protein X3 of SARS-CoV Urbani / Binding of serum 37 to looped/cyclic peptides of protein X3 of SARS-CoV Urbani / Binding of serum 6 to linear peptides of protein X4 of SARS-CoV Urbani / Binding of serum 37 to linear peptides of protein X4 of SARS-CoV Urbani / Binding of serum 37 to looped/cyclic peptides of protein X4 of SARS-CoV Urbani / Binding of serum 6 to linear peptides of protein X5 of SARS-CoV Urbani / Binding of serum 37 to linear peptides of protein X5 of SARS-CoV Urbani / Binding of serum 37 to looped/cyclic peptides of protein X5 of SARS-CoV Urbani / Binding of serum 6 to linear peptides of protein N of SARS-CoV Urbani / Binding of serum 37 to linear peptides of protein N of SARS-CoV Urbani / Binding of serum 6 to linear peptide (PEPSCAN-ELISA) / Binding of serum 1a to looped/cyclic peptides of protein N of SARS-CoV Urbani / Binding of serum 1b to looped/cyclic peptides of protein N of SARS-CoV Urbani / Binding of serum 2 to looped/cyclic peptides of protein N of SARS-CoV Urbani / Binding of serum 6 to looped/cyclic peptides of protein N of SARS-CoV Urbani / Binding of serum 37 to looped/cyclic peptides of protein N of SARS-CoV Urbani / Binding of serum 62 to looped/cyclic peptides of protein N of SARS-CoV Urbani / Binding of serum London to looped/cyclic peptides of protein N of SARS-CoV Urbani / Binding of serum SARS-green to looped/cyclic peptides of protein N of SARS-CoV Urbani: unit not given here
[2] = tested on: control sera (pooled serum of ten healthy LUMC hospital workers; commercial negative donor pooled serum from the Dutch bloodbank); format: binding, human; set-up: Binding of Control serum LUMC to linear peptides / Binding of Control serum Blood-bank to linear peptides / Binding of Control serum LUMC to looped peptides / Binding of Control Serum Blood-Bank to Looped peptides / Binding of Control serum LUMC to linear peptides of the protein M of SARS-CoV Urbani / Binding of Control serum Blood-bank to linear peptides of the protein M of SARS-CoV Urbani / Binding of Control serum LUMC to looped peptides of the protein M of SARS-CoV Urbani / Binding of Control Serum Blood-Bank to Looped peptides of the protein M of SARS-CoV Urbani: unit not given here
[3] = tested on: rabbit serum obtained by immunizing a rabbit with the SARS-CoV strain Frankfurt 1; format: binding; set-up: Binding of a rabbit serum to linear peptides / Binding of a rabbit serum to looped peptides / Rabbit serum linear peptides / Rabbit serum looped peptides / Binding of a rabbit serum to linear peptides of protein N of SARS-CoV Urbani (Rabbit serum linear peptides) / Binding of a rabbit serum to looped/cyclic peptides of protein N of SARS-CoV Urbani (Rabbit serum looped peptides): unit not given here

Sequence | Binding of serum 1a to linear peptides of protein M of SARS-CoV Urbani [1] | Binding of serum 1a to looped/cyclic peptides of protein M of SARS-CoV Urbani [1] | Binding of serum 1b to linear peptides of protein M of SARS-CoV Urbani [1] | Binding of serum 1b to looped/cyclic peptides of protein M of SARS-CoV Urbani [1] | Binding of serum 2 to linear peptides of protein M of SARS-CoV Urbani [1] | Binding of serum 2 to looped/cyclic peptides of protein M of SARS-CoV Urbani [1] | Binding of serum 6 to linear peptides of protein M of SARS-CoV Urbani [1] | Binding of serum 6 to looped/cyclic peptides of protein M of SARS-CoV Urbani [1] | Binding of serum 37 to linear peptides of protein M of SARS-CoV Urbani [1] | Binding of serum 37 to looped/cyclic peptides of protein M of SARS-CoV Urbani [1] | Binding of serum 62 to linear peptides of protein M of SARS-CoV Urbani [1] | Binding of serum 62 to looped/cyclic peptides of protein M of SARS-CoV Urbani [1] | Binding of serum London to linear peptides of protein M of SARS-CoV Urbani [1] | Binding of serum London to looped/cyclic peptides of protein M of SARS-CoV Urbani [1] | Binding of serum SARS-green to linear peptides of protein M of SARS-CoV Urbani [1] | Binding of serum SARS-green to looped/cyclic peptides of protein M of SARS-CoV Urbani [1] | Binding of serum SARS-yellow to linear peptides of protein M of SARS-CoV Urbani [1] | Binding of serum SARS-yellow to looped/cyclic peptides of protein M of SARS-CoV Urbani [1] | Binding of Control Serum Blood-Bank to Looped peptides of the protein M of SARS-CoV Urbani [2] | Binding of Control serum Blood-bank to linear peptides of the protein M of SARS-CoV Urbani [2] | other results
AAVYRINWVTGGIAI | 0.9 | 0.6 | 0.7 | 0.4 | 0.7 | 0.6 | 0.5 | 0.5 | 0.6 | 0.7 | 0.5 | 0.4 | 0.4 | 0.2 | 0.6 | 0.0 | 0.3 | 0.7 | 0.8 | 0.8 | Binding of Control serum LUMC to linear peptides of the protein M of SARS-CoV Urbani [2]: 1.0; Binding of Control serum LUMC to looped peptides of the protein M of SARS-CoV Urbani [2]: 0.5; Rabbit serum linear peptides [3]: 0.4; Rabbit serum looped peptides [3]: 0.4
LYIIKLVFLWLLWPV | 0.8 | 0.6 | 0.6 | 0.5 | 0.6 | 0.5 | 0.4 | 0.7 | 0.4 | 0.6 | 0.4 | 0.6 | 0.3 | 0.2 | 0.5 | 0.3 | 0.2 | 0.3 | 0.7 | 0.7 | Binding of Control serum LUMC to linear peptides of the protein M of SARS-CoV Urbani [2]: 0.7; Binding of Control serum LUMC to looped peptides of the protein M of SARS-CoV Urbani [2]: 0.6; Rabbit serum linear peptides [3]: 0.1; Rabbit serum looped peptides [3]: 0.3
NACRIIMRCWLCWKC | – | – | – | – | – | – | – | – | – | – | – | – | – | – | – | – | – | – | – | – | Binding of serum 1a to looped/cyclic peptide (PEPSCAN-ELISA) [1]: 0.6; Binding of serum 1b to looped/cyclic peptide (PEPSCAN-ELISA) [1]: 0.5; Binding of serum 2 to looped/cyclic peptide (PEPSCAN-ELISA) [1]: 0.5; Binding of serum 6 to looped/cyclic peptide (PEPSCAN-ELISA) [1]: 0.6; Binding of serum 37 to looped/cyclic peptide (PEPSCAN-ELISA) [1]: 0.5; Binding of serum 62 to looped/cyclic peptide (PEPSCAN-ELISA) [1]: 0.7; Binding of serum London to looped/cyclic peptide (PEPSCAN-ELISA) [1]: 0.3; Binding of serum SARS-green to looped/cyclic peptide (PEPSCAN-ELISA) [1]: 0.3; Binding of serum SARS-yellow to looped/cyclic peptide (PEPSCAN-ELISA) [1]: 0.4; Recognition of the peptide by sera of SARS-CoV infected individuals, and form (linear, looped/cyclic) in which it is recognized [1]: recognized in linear form; Binding of Control Serum Blood-Bank to Looped peptides [2]: 0.8; Binding of Control serum Blood-bank to linear peptides [2]: 1.0; Binding of Control serum LUMC to linear peptides [2]: 0.5; Binding of Control serum LUMC to looped peptides [2]: 0.6; Recognition of the peptide by the rabbit serum [3]: recognized
